Assay results published in patent US10370336B2, “Phenyl-cyanoquinolinone PDE9 inhibitors” (Merck Sharp & Dohme Corp., priority 2015, dated 2019).
pKi: −log10 of the molar value.

Molecular target: human PDE9 enzyme (PDE9A2) (Homo sapiens (Human), UniProt O76083)
Settings: read-out: PDE9 IMAP Ki; IMAP FP assay, FAM-cGMP substrate 50 nM, apparent inhibition constant
Description: Dose-inhibition profiles for each compound were characterized by fitting the mP data to a four-parameter equation given below.

human PDE9 enzyme (PDE9A2), sequence (O76083 other isoform, or with tags, fused parts or gaps): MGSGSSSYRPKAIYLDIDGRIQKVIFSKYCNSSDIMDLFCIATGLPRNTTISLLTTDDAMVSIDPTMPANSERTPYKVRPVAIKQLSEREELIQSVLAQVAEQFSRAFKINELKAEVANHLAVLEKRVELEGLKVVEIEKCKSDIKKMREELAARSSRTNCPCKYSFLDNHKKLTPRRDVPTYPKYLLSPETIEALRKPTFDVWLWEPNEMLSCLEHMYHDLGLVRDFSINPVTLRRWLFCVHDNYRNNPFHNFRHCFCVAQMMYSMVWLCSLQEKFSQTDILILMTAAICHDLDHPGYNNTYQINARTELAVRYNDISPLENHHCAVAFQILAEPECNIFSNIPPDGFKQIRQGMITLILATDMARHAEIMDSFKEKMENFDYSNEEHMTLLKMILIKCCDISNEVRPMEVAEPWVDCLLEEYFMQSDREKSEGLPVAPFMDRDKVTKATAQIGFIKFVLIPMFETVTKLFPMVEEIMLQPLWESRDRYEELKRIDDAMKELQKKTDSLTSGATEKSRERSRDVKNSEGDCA

## Cc1ccc(-c2c(C#N)c(=O)[nH]c3ccccc23)cc1 [Example 1-9, 2-oxo-4-(p-tolyl)-1H-quinoline-3-carbonitrile]
  pKi: 8.05
